According to patent US6515140B2, “Fused pyrrolecarboxamides; a new class of GABA brain receptor ligands” (Neurogen Corporation, priority 1996, dated 2003):

Row | SMILES | melting point
1 | O=C(Nc1ccc(OCCNC2C3CC4CC(C3)CC2C4)cc1)c1c[nH]c2c1C(=O)CCC2 (stereo not shown) [Compound 83, N-[4-(2-adamant-2-ylaminoethoxy)phenyl]-4-oxo-4,5,6,7-tetrahydro-1H-indole-3-carboxamide] | 144 to 149 °C
2 | CC(C)(C)NCCOc1ccncc1NC(=O)c1c[nH]c2c1C(=O)CCC2 [Compound 112, N-[4-(2-t-Butylaminoethoxy)pyrid-3-yl]-4-oxo-4,5,6,7-tetrahydro-1H-indole-3-carboxamide] | 274 to 278 °C
3 | Cl.O=C(Nc1cnccc1OCc1ccncc1)c1c[nH]c2c1C(=O)CCC2 | 293 °C
4 | CCCNCCOc1ccncc1NC(=O)c1c[nH]c2c1C(=O)CCCC2.Cl | 210 °C
5 | CCNCCOc1ccc(NC(=O)c2c[nH]c3c2C(=O)CCCC3)cc1.Cl | 227 to 228 °C
6 | CC1CC(=O)c2c(C(=O)Nc3ccc4c(c3)OCCO4)c[nH]c2C1 (stereo not shown) [Compound 42, N-(2,3-Dihydro-1,4-benzodioxin-6-yl)-4-oxo-6-methyl-4,5,6,7-tetrahydro-1H-indole-3-carboxamide] | 290 to 292 °C
7 | Cl.O=C(Nc1cnccc1OCc1ccncc1)c1c[nH]c2c1C(=O)CCCC2 | 235 to 240 °C (dec.)
8 | CC(C)NCCOc1ccncc1NC(=O)c1c[nH]c2c1C(=O)CCC2.Cl | 167 to 169 °C
9 | CCCCNCCOc1ccncc1NC(=O)c1c[nH]c2c1C(=O)CCC2.Cl | 157 to 159 °C
10 | CC1(C)CCc2[nH]cc(C(=O)Nc3ccc4c(c3)OCCO4)c2C1=O [Compound 37, N-(2,3-Dihydro-1,4-benzodioxin-6-yl)-4-oxo-5,5-dimethyl-4,5,6,7-tetrahydro-1H-indole-3-carboxamide] | 241 to 243 °C
11 | CC1(C)CC(=O)c2c(C(=O)Nc3ccc4c(c3)OCOC4)c[nH]c2C1 [Compound 45, N-(4H-1,3-Benzodioxin-7-yl)-4-oxo-6,6-dimethyl-4,5,6,7-tetrahydro-1H-indole-3-carboxamide] | 234 to 236 °C
12 | O=C(Nc1ccc(OCCC2CCCCN2)cc1)c1c[nH]c2c1C(=O)CCC2 (stereo not shown) [Compound 94, N-[4-(2-Piperidin-2-ylethoxy)phenyl]-4-oxo-4,5,6,7-tetrahydro-1H-indole-3-carboxamide] | 281 to 285 °C
13 | CNCc1ccc(NC(=O)c2c[nH]c3c2C(=O)CC(C)C3)cc1 (stereo not shown) [Compound 27, N-[4-(Methylaminomethyl)phenyl]-4-oxo-6-methyl-4,5,6,7-tetrahydro-1H-indole-3-carboxamide] | 217 to 219 °C
14 | CC1CC(=O)c2c(C(=O)Nc3ccc4c(c3)OCO4)c[nH]c2C1 (stereo not shown) [Compound 41, N-(1,3-Benzodioxol-5-yl)-4-oxo-6-methyl-4,5,6,7-tetrahydro-1H-indole-3-carboxamide] | 297 to 299 °C
15 | Cl.O=C(Nc1ccc(OCC2CCCNC2)cc1)c1c[nH]c2c1C(=O)CCC2 (stereo not shown) | 196 to 199 °C
16 | CNCc1ccc(NC(=O)c2c[nH]c3c2C(=O)CC(C)(C)C3)cc1 [Compound 32, N-[4-(Methylaminomethyl)phenyl]-4-oxo-6,6-dimethyl-4,5,6,7-tetrahydro-1H-indole-3-carboxamide] | 230 to 232 °C
17 | CC(C)(C)NCCOc1ccc(NC(=O)c2c[nH]c3c2C(=O)CCC3)cc1 [Compound 81, N-[4-(2-t-Butylaminoethoxy)phenyl]-4-oxo-4,5,6,7-tetrahydro-1H-indole-3-carboxamide] | 290 to 292 °C
18 | CC1(C)CCc2[nH]cc(C(=O)Nc3ccc4c(c3)OCOC4)c2C1=O [Compound 38, N-(4H-1,3-Benzodioxin-7-yl)-4-oxo-5,5-dimethyl-4,5,6,7-tetrahydro-1H-indole-3-carboxamide] | 251 to 252 °C
19 | O=C(Nc1ccc(OC[C@@H]2CCCN2)cc1)c1c[nH]c2c1C(=O)CCC2 [Compound 85, N-{4-[(S)-Pyrrolidin-2-ylmethoxy]phenyl}-4-oxo-4,5,6,7-tetrahydro-1H-indole-3-carboxamide] | 165 to 167 °C
20 | Cl.O=C(Nc1cnccc1OCCN1CCCC1)c1c[nH]c2c1C(=O)CCCC2 | 160 to 162 °C
21 | O=C(Nc1ccc2c(c1)OCO2)c1c[nH]c2c1C(=O)CCCC2 [Compound 39, N-(1,3-Benzodioxol-5-yl)-4-oxo-1,4,5,6,7,8-hexahydro-cyclohepta[b]pyrrole-3-carboxamide] | 210 to 212 °C
22 | Cl.O=C(Nc1cnccc1OCc1cccnc1)c1c[nH]c2c1C(=O)CCC2 | 276 to 277 °C
23 | CC1CC(=O)c2c(C(=O)Nc3ccc4c(c3)OC(C)(C)O4)c[nH]c2C1 (stereo not shown) [Compound 40, N-(2,2-Dimethyl-1,3-benzodioxol-5-yl)-4-oxo-6-methyl-4,5,6,7-tetrahydro-1H-indole-3-carboxamide] | 155 to 157 °C
24 | CC(C)NCc1ccc(NC(=O)c2c[nH]c3c2C(=O)CCC3)cc1 [Compound 22, N-[4-(Isopropylaminomethyl)phenyl]-4-oxo-4,5,6,7-tetrahydro-1H-indole-3-carboxamide] | 164 to 166 °C
25 | CCNCCOc1ccncc1NC(=O)c1c[nH]c2c1C(=O)CCC2.Cl | 178 to 180 °C
26 | O=C(Nc1ccc(OCCN2CCCC2)cc1)c1c[nH]c2c1C(=O)CCC2 [Compound 90, N-[4-(2-Pyrrolidin-1-ylethoxy)phenyl]-4-oxo-4,5,6,7-tetrahydro-1H-indole-3-carboxamide] | 164 to 168 °C
27 | Cl.O=C(Nc1cnccc1OCCNCc1ccccc1)c1c[nH]c2c1C(=O)CCC2 | 143 to 145 °C
28 | O=C(Nc1cccc(OCCCNC23CC4CC(CC(C4)C2)C3)c1)c1c[nH]c2c1C(=O)CCCC2 [Compound 183, N-[3-(3-Adamant-1-ylaminopropoxy)phenyl]4-oxo-1,4,5,6,7,8-hexahydro-cyclohepta[b]pyrrole-3-carboxamide] | 175 to 176 °C
29 | Cl.O=C(Nc1cnccc1OCCN1CCCCC1)c1c[nH]c2c1C(=O)CCC2 | 208 to 211 °C

Now from value to compound:

Row | melting point | SMILES
30 | 245 to 247 °C | O=C(Nc1ccc(OCCO)cc1)c1c[nH]c2c1C(=O)CCC2 [Compound 16, N-[4-(Hydroxyethoxy)phenyl]-4-oxo-4,5,6,7-tetrahydro-1H-indole-3-carboxamide]
31 | 284 to 286 °C | CC(C)NCCOc1ccc(NC(=O)c2c[nH]c3c2C(=O)CCC3)cc1 [Compound 69, N-[4-(2-Isopropylaminoethoxy)phenyl]-4-oxo-4,5,6,7-tetrahydro-1H-indole-3-carboxamide]
32 | 247 to 250 °C | O=C(Nc1ccc(OCCNCC2CC2)cc1F)c1c[nH]c2c1C(=O)CCC2 [Compound 72, N-[2-Fluoro-4-(2-Cyclopropylmethylaminoethoxy)phenyl]-4-oxo-4,5,6,7-tetrahydro-1H-indole-3-carboxamide]
33 | 194 to 195 °C | CCNCc1ccc(NC(=O)c2c[nH]c3c2C(=O)CCC3)cc1 [Compound 21, N-[4-(Ethylaminomethyl)phenyl]-4-oxo-4,5,6,7-tetrahydro-1H-indole-3-carboxamide]
34 | 140 to 141 °C | CCNCCOc1ccc(NC(=O)c2c[nH]c3c2C(=O)CCC3)cc1 [Compound 62, N-[4-(2-Ethylaminoethoxy)phenyl]-4-oxo-4,5,6,7-tetrahydro-1H-indole-3-carboxamide]
35 | 163 to 166 °C | CN(C)CCOc1ccncc1NC(=O)c1c[nH]c2c1C(=O)CCC2 [Compound 122, N-[4-(2-Dimethylaminoethoxy)pyrid-3-yl]-4-oxo-4,5,6,7-tetrahydro-1H-indole-3-carboxamide]
36 | 373 °C | CCCNCCOc1ccc(NC(=O)c2c[nH]c3c2C(=O)CCC3)cc1F.Cl
37 | 192 to 196 °C | CCOC(=O)COc1ccc(NC(=O)c2c[nH]c3c2C(=O)CCC3)cc1F [Compound 222, N-[3-Fluoro-4-(2-ethoxy-2-oxoethoxy)phenyl]-4-oxo-4,5,6,7-tetrahydro-1H-indole-3-carboxamide]
38 | 283 to 286 °C | O=C(Nc1ccc2c(c1)CCN2)c1c[nH]c2c1C(=O)CCC2 [Compound 35, N-(2,3-Dihydro-1H-indol-5-yl)4-oxo-4,5,6,7-tetrahydro-1H-indole-3-carboxamide]
39 | 217 to 219 °C | CNCc1ccc(NC(=O)c2c[nH]c3c2C(=O)CCC3)cc1 [Compound 19, N-[4-(Methylaminomethyl)phenyl]-4-oxo-4,5,6,7-tetrahydro-1H-indole-3-carboxamide]
40 | 147 to 149 °C | CC(C)CNCCOc1ccc(NC(=O)c2c[nH]c3c2C(=O)CCC3)cc1F [Compound 77, N-[3-Fluoro-4-(2-Isobutylaminoethoxy)phenyl]-4-oxo-4,5,6,7-tetrahydro-1H-indole-3-carboxamide]
41 | 164 to 165 °C | COCc1ccc(NC(=O)c2c[nH]c3c2C(=O)CCC3)cc1 [Compound 18, N-[4-(Methoxymethyl)phenyl]-4-oxo-4,5,6,7-tetrahydro-1H-indole-3-carboxamide]
42 | 110 °C | O=C(Nc1ccc(OCC(=O)N2CCOCC2)c(F)c1)c1c[nH]c2c1C(=O)CCC2 [Compound 232, N-[3-fluoro-4-(2-morpholin-4-yl-2-oxoethoxy)phenyl](4-oxo-(4,5,6,7-tetrahydroindol-3-yl))carboxamide]
43 | 201 °C | CN(C)CCOc1ccc(NC(=O)c2c[nH]c3c2C(=O)CCC3)cc1 [Compound 88, N-[4-(2-Dimethylaminoethoxy)phenyl]-4-oxo-4,5,6,7-tetrahydro-1H-indole-3-carboxamide]
44 | 193 to 196 °C | CCN(CC)C(=O)COc1ccc(NC(=O)c2c[nH]c3c2C(=O)CCC3)cc1F [Compound 225, N-[3-Fluoro-4-(2-diethylamino-2-oxoethoxy)phenyl]-4-oxo-4,5,6,7-tetrahydro-1H-indole-3-carboxamide]
45 | 152 to 155 °C | CC(C)CNCCOc1ccc(NC(=O)c2c[nH]c3c2C(=O)CCC3)c(F)c1 [Compound 76, N-[2-Fluoro-4-(2-Isobutylaminoethoxy)phenyl]-4-oxo-4,5,6,7-tetrahydro-1H-indole-3-carboxamide]
46 | 246 to 248 °C | O=C(O)COc1ccc(NC(=O)c2c[nH]c3c2C(=O)CCC3)cc1F [Compound 223, N-[3-Fluoro-4-(2-hydroxy-2-oxoethoxy)phenyl]-4-oxo-4,5,6,7-tetrahydro-1H-indole-3-carboxamide]
